Where two headings read alike, the source gives them in different places.
Experiments:
mu opiate receptor (MOR) = assay: MOR agonist activity using [35S]GTPγS binding assay in striatal membranes; format: biochemical; settings: for MOR agonist activity ([35S]GTPγS binding), FLNA-Binding Compound as Agonist 1 μM + BFNA: 1 μM compound + 1 μM β-funaltrexamine
Summary of the method: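 Striatal membranes (200 μg) were preincubated 5 min at 30 °C in HEPES pH 7.5 with 100 mM NaCl, 1 mM MgCl2 and 0.5 nM [35S]GTPγS, then 5 min more with 0.1–10 μM compound. Gαo was immunoprecipitated and bound radioactivity counted by scintillation.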

[1] = biological target: FLNA pentapeptide of SEQ ID NO: 1 (Bn-VAKGL) (Homo sapiens, UniProt P21333); assay: FITC-NLX-based FLNA screening assay (inhibition of FITC-naloxone binding to Bn-VAKGL on streptavidin plates); settings: 10 nM FITC-NLX
[2] = FLNA-binding compound 0.01 μM, read-out: Percent Binding Inhibition
[3] = FLNA-binding compound 0.1 μM, read-out: Percent Binding Inhibition
[4] = FLNA-binding compound 1 μM, read-out: Percent Binding Inhibition
[5] = Series C-1, 0.1 μM compound, relative to DAMGO
[6] = Series C-1, 0.1 μM compound, [35S]GTPγS binding to Gαo, striatal membranes
[7] = Series C-1, 1 μM compound + 1 μM β-FNA
[8] = Series C-1, 1 μM compound + β-FNA, relative to DAMGO + BFNA
[9] = Series C-1, 1 μM compound, relative to DAMGO
[10] = Series C-1, 1 μM compound, [35S]GTPγS binding to Gαo, striatal membranes
[11] = read-out: Percent Binding Inhibition, FLNA-binding compound 0.01 μM
[12] = read-out: Percent Binding Inhibition, FLNA-binding compound 0.1 μM
[13] = read-out: Percent Binding Inhibition, FLNA-binding compound 1 μM
[14] = Series B, 0.1 μM compound, relative to DAMGO
[15] = Series B, 0.1 μM compound, [35S]GTPγS binding to Gαo, striatal membranes
[16] = Series B, 1 μM compound + 1 μM β-FNA
[17] = Series B, 1 μM compound + β-FNA, relative to DAMGO + BFNA
[18] = Series B, 1 μM compound, relative to DAMGO
[19] = Series B, 1 μM compound, [35S]GTPγS binding to Gαo, striatal membranes
[20] = 0.1 μM compound relative to DAMGO
[21] = 1 μM compound + BFNA relative to DAMGO + BFNA
[22] = 1 μM compound relative to DAMGO

Row | Compound | inhibition at 0.01 µM [1, 11] [%] | inhibition at 0.1 µM [1, 12] [%] | inhibition at 1 µM [1, 13] [%] | % DAMGO (0.1 μM) (mu opiate receptor (MOR); [14]) [%] | MOR agonist activity, percent [35S]GTPγS binding at the stated compound concentration (mu opiate receptor (MOR); [15]) [%] | MOR agonist activity, percent [35S]GTPγS binding at the stated compound concentration (mu opiate receptor (MOR); [16]) [%] | % DAMGO + BFNA (mu opiate receptor (MOR); [17]) [%] | % DAMGO (1 μM) (mu opiate receptor (MOR); [18]) [%] | MOR agonist activity, percent [35S]GTPγS binding at the stated compound concentration (mu opiate receptor (MOR); [19]) [%] | further results
1 | CCOC(=O)CN1CCC2(CC1)OCCN2S(=O)(=O)c1ccc(C(C)=O)cc1 [Compound C0099M] |  |  |  |  |  |  |  |  |  | % DAMGO (0.1 μM) (mu opiate receptor (MOR); Series C-2, 0.1 μM compound, relative to DAMGO): 93.8%; MOR agonist activity, percent [35S]GTPγS binding at the stated compound concentration (mu opiate receptor (MOR); Series C-2, 0.1 μM compound, [35S]GTPγS binding to Gαo, striatal membranes): 157.2%; MOR agonist activity, percent [35S]GTPγS binding at the stated compound concentration (mu opiate receptor (MOR); Series C-2, 1 μM compound + 1 μM β-FNA): 114.7%; % DAMGO + BFNA (mu opiate receptor (MOR); Series C-2, 1 μM compound + β-FNA, relative to DAMGO + BFNA): 241.5%; % DAMGO (1 μM) (mu opiate receptor (MOR); Series C-2, 1 μM compound, relative to DAMGO): 88.0%; MOR agonist activity, percent [35S]GTPγS binding at the stated compound concentration (mu opiate receptor (MOR); Series C-2, 1 μM compound, [35S]GTPγS binding to Gαo, striatal membranes): 195.7%; inhibition at 0.01 µM [1, 2]: 46.9%; inhibition at 0.1 µM [1, 3]: 53.3%; inhibition at 1 µM [1, 4]: 56%
2 | Cc1ccccc1S(=O)(=O)N1CCC2(CC1)OCCN2S(=O)(=O)c1ccccc1C [Compound C0015] | 31.2 | 40.6 | 45.5 |  |  |  |  |  |  | % DAMGO (0.1 μM) (mu opiate receptor (MOR); [5]): 78.5%; Concentration of FLNA-Binding Compound as Agonist 0.1 μM (mu opiate receptor (MOR); [6]): 138.7%; Concentration of FLNA-Binding Compound as Agonist 1 μM + BFNA (mu opiate receptor (MOR); [7]): 126.8%; % DAMGO + BFNA (mu opiate receptor (MOR); [8]): 193.0%; % DAMGO (1 μM) (mu opiate receptor (MOR); [9]): 78.9%; Concentration of FLNA-Binding Compound as Agonist 1 μM (mu opiate receptor (MOR); [10]): 204.7%
3 | COc1cc(CC(=O)CC2c3c(cc4c(c3OC)OCO4)CC[N+]2(C)C)cc(OC)c1OC (stereo not drawn) [Compound B0008] | 35.5 | 40.3 | 52.8 | 84.0 | 148.3 | 46.0 | 70.0 | 101.9 | 264.1 | 
4 | COc1ccc(C(=O)CC2c3c(cc4c(c3OC)OCO4)CC[N+]2(C)C)cc1OC (stereo not drawn) [Compound B0026] | 41.1 | 43.3 | 48.2 | 88.8 | 152.0 | 28.8 | 55.3 | 87.4 | 233.3 | 
5 | O=S(=O)(c1ccc(F)c(F)c1)N1CCC2(CC1)OCCN2S(=O)(=O)c1ccc(F)c(F)c1 [Compound C0072] |  |  |  |  |  |  |  |  |  | % DAMGO (0.1 μM) (mu opiate receptor (MOR); [5]): 100.3%; Concentration of FLNA-Binding Compound as Agonist 0.1 μM (mu opiate receptor (MOR); [6]): 172.7%; Concentration of FLNA-Binding Compound as Agonist 1 μM + BFNA (mu opiate receptor (MOR); [7]): 67.1%; % DAMGO + BFNA (mu opiate receptor (MOR); [8]): 194.5%; % DAMGO (1 μM) (mu opiate receptor (MOR); [9]): 117.9%; Concentration of FLNA-Binding Compound as Agonist 1 μM (mu opiate receptor (MOR); [10]): 259.1%; inhibition at 0.01 µM [1, 2]: 28.4%; inhibition at 0.1 µM [1, 3]: 37.4%; inhibition at 1 µM [1, 4]: 44%
6 | COc1ccc(C(=O)CC2c3c(cc4c(c3OC)OCO4)CC[N+]2(C)C)cc1 (stereo not drawn) [Compound B0024] | 34.8 | 43.4 | 47.7 | 93.2 | 155.8 | 20.2 | 58.2 | 116.7 | 285.9 | 
7 | COc1c2c(cc3c1C(CC(=O)Cc1ccc(Br)cc1)[N+](C)(C)CC3)OCO2 (stereo not drawn) [Compound B0011] | 40.9 | 50.3 | 55.8 | 95.7 | 158.6 | 78.0 | 120.0 | 78.7 | 212.6 | 
8 | COc1ccccc1C(=O)CC1c2c(cc3c(c2OC)OCO3)CC[N+]1(C)C (stereo not drawn) [Compound B0025] | 41.7 | 49.4 | 56.6 | 96.3 | 159.6 | 137.7 | 211.8 | 86.8 | 234.6 | 
9 | COc1c2c(cc3c1C(CC(O)CCc1ccccc1)[N+](C)(C)CC3)OCO2 (stereo not drawn) [Compound B0052] | 30.2 | 39.1 | 44.3 | 58.1 | 98.2 | 40.9 | 246.4 | 69.3 | 151.7 | 
10 | COc1ccc(CCC(O)CC2c3c(cc4c(c3OC)OCO4)CCN2C)cc1 (stereo not drawn) [Compound B0048] |  |  |  | 104.8 | 185.1 | 78.5 | 298.5 | 87.8 | 223.4 | inhibition at 0.01 µM [1, 2]: 34.7%; inhibition at 0.1 µM [1, 3]: 41.9%; inhibition at 1 µM [1, 4]: 43.9%
11 | CC1CN(CC(O)COc2cccc(N(C)C)c2)CC(C)O1 (stereo not drawn) [Compound A0042] |  |  |  |  |  |  |  |  |  | MOR agonist activity ([35S]GTPγS binding), FLNA-Binding Compound as Agonist 0.1 μM (mu opiate receptor (MOR); 0.1 μM compound): 147.5%; % DAMGO (0.1 μM) (mu opiate receptor (MOR); [20]): 75.2%; MOR agonist activity ([35S]GTPγS binding), FLNA-Binding Compound as Agonist 1 μM (mu opiate receptor (MOR); 1 μM compound): 233.1%; MOR agonist activity ([35S]GTPγS binding), FLNA-Binding Compound as Agonist 1 μM + BFNA (mu opiate receptor (MOR)): 89.5%; % DAMGO + BFNA (mu opiate receptor (MOR); [21]): 121.1%; % DAMGO (1 μM) (mu opiate receptor (MOR); [22]): 84.5%; inhibition at 0.01 µM [1, 2]: 47.2%; inhibition at 0.1 µM [1, 3]: 48.3%; inhibition at 1 µM [1, 4]: 55.8%
12 | CC1CCC(C(C)C)C(OCC(O)CN2CCC2)C1 (stereo not drawn) [Compound A0015] | 36.3 | 46.8 | 55 |  |  |  |  |  |  | MOR agonist activity ([35S]GTPγS binding), FLNA-Binding Compound as Agonist 0.1 μM (mu opiate receptor (MOR); 0.1 μM compound): 110.9%; % DAMGO (0.1 μM) (mu opiate receptor (MOR); [20]): 64.8%; MOR agonist activity ([35S]GTPγS binding), FLNA-Binding Compound as Agonist 1 μM (mu opiate receptor (MOR); 1 μM compound): 150.1%; MOR agonist activity ([35S]GTPγS binding), FLNA-Binding Compound as Agonist 1 μM + BFNA (mu opiate receptor (MOR)): 62.5%; % DAMGO + BFNA (mu opiate receptor (MOR); [21]): 120.0%; % DAMGO (1 μM) (mu opiate receptor (MOR); [22]): 56.2%
13 | CC1CCC(C(C)C)C(OCC(O)CN2CCc3ccccc3C2)C1 (stereo not drawn) [Compound A0040] | 45 | 50.4 | 56.3 |  |  |  |  |  |  | MOR agonist activity ([35S]GTPγS binding), FLNA-Binding Compound as Agonist 0.1 μM (mu opiate receptor (MOR); 0.1 μM compound): 46.1%; % DAMGO (0.1 μM) (mu opiate receptor (MOR); [20]): 23.5%; MOR agonist activity ([35S]GTPγS binding), FLNA-Binding Compound as Agonist 1 μM (mu opiate receptor (MOR); 1 μM compound): 149.0%; MOR agonist activity ([35S]GTPγS binding), FLNA-Binding Compound as Agonist 1 μM + BFNA (mu opiate receptor (MOR)): 16.7%; % DAMGO + BFNA (mu opiate receptor (MOR); [21]): 22.6%; % DAMGO (1 μM) (mu opiate receptor (MOR); [22]): 54.0%
14 | COc1ccc(NC(=O)N2CCC3(CC2)OCCN3S(=O)(=O)c2ccc(OC)cc2)cc1 [Compound C0041] | 38.3 | 47 | 51.2 |  |  |  |  |  |  | % DAMGO (0.1 μM) (mu opiate receptor (MOR); [5]): 110.1%; Concentration of FLNA-Binding Compound as Agonist 0.1 μM (mu opiate receptor (MOR); [6]): 186.1%; Concentration of FLNA-Binding Compound as Agonist 1 μM + BFNA (mu opiate receptor (MOR); [7]): 95.5%; % DAMGO + BFNA (mu opiate receptor (MOR); [8]): 575.3%; % DAMGO (1 μM) (mu opiate receptor (MOR); [9]): 111.7%; Concentration of FLNA-Binding Compound as Agonist 1 μM (mu opiate receptor (MOR); [10]): 244.4%
15 | Cc1ccc(S(=O)(=O)N2CCC3(CC2)OCCN3S(=O)(=O)c2ccc(C)cc2)cc1 [Compound C0001] | 34.8 | 42.9 | 51.3 |  |  |  |  |  |  | % DAMGO (0.1 μM) (mu opiate receptor (MOR); [5]): 75.2%; Concentration of FLNA-Binding Compound as Agonist 0.1 μM (mu opiate receptor (MOR); [6]): 129.3%; Concentration of FLNA-Binding Compound as Agonist 1 μM + BFNA (mu opiate receptor (MOR); [7]): 33.9%; % DAMGO + BFNA (mu opiate receptor (MOR); [8]): 52.9%; % DAMGO (1 μM) (mu opiate receptor (MOR); [9]): 66.6%; Concentration of FLNA-Binding Compound as Agonist 1 μM (mu opiate receptor (MOR); [10]): 184.3%
